Reference: paper PMC4269305, “The impact of P-gp functionality on non-steady state relationships between CSF and brain extracellular fluid” (Journal of Pharmacokinetics and Pharmacodynamics, 2013)

How the values were obtained:
[1] = parameters: method as in PMID 18632828, PMID 21199574; settings: 15 mg/kg tariquidar; up to 3 h after administration; cited from earlier work
P-gp = tested on: P-gp; parameters: method as in PMID 11212278; settings: cited from earlier work
pKa and ionization = type: physicochemical
Excerpt: Therefore, based on our data, it appears that quinidine is also transported by other transporters at the BBB and BCSFB, in the direction of the brain. However, there is no direct information in literature to support this. […] The question remains how this relates to the in vivo situation, like ours. […] OCTs have been localized both at the BBB [66], as well as at the BCSFB [67].

[2] = Plasma protein binding by Centrifree ultrafiltration; type: in vitro ADME; settings: male, Wistar WU, rat, plasma (from dosed rats and from spiked blank blood); linear; not affected by co-administration of tariquidar
Description: […]. […] All blood samples were temporarily stored in heparin (10 IU) coated Eppendorf cups. […]. The spiked blood samples were then incubated in a shaking water bath at 37 °C for 30 min.
Plasma protein binding was determined with Centrifree® ultrafiltration devices (Millipore BV, Etten-Leur, the Netherlands). All procedures were performed according to the user’s manual. The ultrafiltrate was diluted ten times with saline before the analysis.

Na^+-K^+-ATPase = settings: cited from earlier work

% ionized (pKa and ionization; pH 7.3) [%]	% ionized (pKa and ionization; pH 7.4) [%]	fraction unbound at 30 min [2]	SMILES	plasma and brain concentrations relative to the IC50 value (fold higher) [1]	half-maximum inhibition constant (IC50) for P-gp (P-gp)	reported IC50 for inhibition of Na+-K+-ATPase activity (Na^+-K^+-ATPase)
–	–	–	COc1cc2c(cc1OC)CN(CCc1ccc(NC(=O)c3cc(OC)c(OC)cc3NC(=O)c3cnc4ccccc4c3)cc1)CC2 [tariquidar, Tariquidar]	over 50 -fold	approximately 25 ng/ml	–
80	76	0.135	C=C[C@H]1C[N@@]2CC[C@H]1C[C@@H]2[C@@H](O)c1ccnc2ccc(OC)cc12 [quinidine, Quinidine]	–	–	~ 30 μg/ml
